Here are results for one substance from patent US20030157176A1, “Antimicrobially treated material and methods of preventing coloring thereof” (priority 2001, published 2003).

The data set in a line: Silver ion concentration ranges in the water system. The settings on record: dissociated in water system. An excerpt: A basic idea of the present invention for preventing coloring of silver zeolite is to make an purposeful use of the concentration rages of silver ions dissociated from silver zeolite in water system, i.e., a concentration range A which is effective for antimicrobial action and a concentration range B which is responsible for coloring.
Namely, the concentration range A which is effective for antimicrobial action is more than 1 ppm that is the antimicrobially effective concentration of silver ions while the concentration range B which is responsible for coloring is 40 ppm or more, so that a concentration range C for silver ions dissociated in the water system, which is effective for antimicrobial action without causing coloring, exists between 1 ppm and 40 ppm (preferably between 5 ppm and 30 ppm).
The concentration range of silver ions dissociated from 1000 ppm silver zeolite in the water system varies from 40 ppm to 600 ppm. This variation is probably due to a decrease in the silver ion concentration caused by generation of silver oxide or adsorption of silver ions in the water system, or is under the influence of the degree of dissociation of silver ions by metal salts, surfactants, and temperature. […]

Where only a bound is given, the exact number is not on record here.

Take silver ions: the “antimicrobially effective concentration of silver ions (range A)” value was “more than 1 ppm” and the “silver ion concentration responsible for coloring (range B)” value is not below 40 ppm.
